In general, IC50 refers to the concentration that inhibits the measured activity by half.

Each structure is given as a SMILES string. Where two headings read alike, the source gives them in different places.

This note sets out measurements from patent US20250059175A1, “Mutant Pi3k-Alpha Inhibitors And Their Use As Pharmaceuticals” (Prelude Therapeutics Incorporated, priority 2023, published 2025).

This assay concerns phosphorylation of AKT on Ser473 (PI3K pathway) in T-47D (heterozygous PIK3CA H1047R) cell line. The experiment in a line: PI3K pathway activation assay (pAKT Ser473 HTRF), T-47D cells. The following applies: T-47D (heterozygous PIK3CA H1047R) cells, two hours of treatment, pAKT Ser473 HTRF, read-out: T47D pAKT IC50. It counts as cell-based. The protocol: The inhibitory activity of the compounds of the disclosure was evaluated by measuring phosphorylation of AKT on Ser473 as a readout of the PI3K pathway using HTRF (CisBio catalog number: 64AKSPE). These studies were conducted in the T-47D (heterozygous PIK3CA H1047R) and SKBR3 (PIK3CA WT) cell lines. Cells were maintained in a 37° C. incubator at 5% CO2 in the following media: T-47D: RPMI 1640, ATCC© Modification (Gibco, A10491-01) supplemented with 10% v/v FBS (Gibco, 26140-079), 1% penicillin streptomycin (Gibco, 15140-122), and 7.4 ug/mL insulin (MilliporeSigma, I9278); SKBR3: McCoy's 5a (Modified) Medium (Gibco, 16600-082) supplemented with 10% v/v FBS (Gibco, 26140-079). Cells were seeded in 384-well plates at a density of 4,000 cells/well. Compounds dissolved in DMSO were added using a digital dispense (D300E, Tecan) 10-point serial dilution. After two hours of treatment, cells were lysed for thirty minutes and then incubated with detection reagents per HTRF kit material and manufacturer's instructions. Fluorescence signal was measured with a multimode plate reader (Envision 2105, Perkin Elmer). Fluorescent signal was normalized to background and DMSO controls to obtain percent inhibition/activity for each compound.

As to `Cc1cc([C@@H](C)Nc2ccc(Cl)nc2C(=O)O)nc(N2C(=O)OC[C@@H]2Cc2cn(C)c3ncccc23)c1` [Example 39, 6-Chloro-3-(((R)-1-(4-methyl-6-((S)-4-((1-methyl-1H-pyrrolo[2,3-b]pyridin-3-yl)methyl)-2-oxooxazolidin-3-yl)pyridin-2-yl)ethyl)amino)picolinic acid], the IC50 (Homo sapiens, T47D, 2 h) is less than 0.1 µM.
On the same count and under the same terms, in the case of `C[C@@H](Nc1ccc(Cl)nc1C(=O)O)c1cc(F)cc(N2C(=O)OC[C@@H]2Cc2ccccc2)c1` [Example 10, 3-(((R)-1-(3-((S)-4-Benzyl-2-oxooxazolidin-3-yl)-5-fluorophenyl)ethyl)amino)-6-chloropicolinic acid] it was less than 0.1 µM; in that of `Cc1cc(C(C)Nc2cccnc2C(=O)O)nc(N2C(=O)OC[C@@H]2Cc2ccccc2)c1` (single isomer, unassigned) [Example 13], 0.1 to 1 µM.
Still for that read-out and setting: in the case of `Cc1cc([C@@H](C)Nc2ccc(Cl)nc2C(=O)O)nc(N2C(=O)OC[C@@H]2CCc2ccccc2)c1` [Example 53, 6-Chloro-3-(((R)-1-(4-methyl-6-((S)-2-oxo-4-phenethyloxazolidin-3-yl)pyridin-2-yl)ethyl)amino)picolinic acid] it was 0.1 to 1 µM.
Still for that read-out and setting: with `Cc1cc([C@@H](C)Nc2ccc(Cl)nc2C(=O)O)nc(N2C(=O)OCC[C@@H]2Cc2ccccc2)c1` [Example 56, 3-(((R)-1-(6-((S)-4-Benzyl-2-oxo-1,3-oxazinan-3-yl)-4-methylpyridin-2-yl)ethyl)amino)-6-chloropicolinic acid] the figure was 0.1 to 1 µM; with `Cc1cc(C(C)Nc2ccc(Cl)nc2C(=O)O)cc(N2C(=O)OC[C@@H]2Cc2ccccc2)c1` (single isomer, unassigned) [Example 2], 0.1 to 1 µM.
As for `Cc1cc([C@@H](C)Nc2ccc(Cl)nc2C(=O)O)nc(N2C(=O)OC[C@@H]2Cc2cn(C)nc2C)c1` [Example 35, 6-Chloro-3-(((R)-1-(6-((S)-4-((1,3-dimethyl-1H-pyrazol-4-yl)methyl)-2-oxooxazolidin-3-yl)-4-methylpyridin-2-yl)ethyl)amino)picolinic acid], under “Homo sapiens, T47D, 2 h”, the IC50 lay in the range of 0.1 to 1 µM.
Take `Cc1cc(C(C)Nc2ccc(C(F)(F)F)nc2C(=O)O)nc(N2C(=O)OC[C@@H]2Cc2ccccc2)c1` (single isomer, unassigned) [Example 15]: the IC50 (Homo sapiens, T47D, 2 h) was 1 to 10 µM.
Regarding `Cc1cc([C@@H](C)Nc2ccc(Cl)nc2C(=O)O)nc(N2C(=O)OC[C@@H]2Cc2cccc3ccccc23)c1` [Example 31, 6-Chloro-3-(((R)-1-(4-methyl-6-((S)-4-(naphthalen-1-ylmethyl)-2-oxooxazolidin-3-yl)pyridin-2-yl)ethyl)amino)picolinic acid], the IC50 (Homo sapiens, T47D, 2 h) was in the range of 0.1 to 1 µM.
Same read-out and setting: with `Cc1cc([C@@H](C)Nc2ccc(Cl)nc2C(=O)O)nc(N2C(=O)OC[C@@H]2Cc2ccc(C(=O)N(C)C)cc2)c1` [Example 51, 6-Chloro-3-(((R)-1-(6-((S)-4-(4-(dimethylcarbamoyl)benzyl)-2-oxooxazolidin-3-yl)-4-methylpyridin-2-yl)ethyl)amino)picolinic acid] the figure was 0.1 to 1 µM; with `Cc1cccc(C[C@H]2COC(=O)N2c2cc(F)cc([C@@H](C)Nc3ccc(Cl)nc3C(=O)O)c2)c1` [Example 62, 6-Chloro-3-(((R)-1-(3-fluoro-5-((S)-4-(3-methylbenzyl)-2-oxooxazolidin-3-yl)phenyl)ethyl)amino)picolinic acid], 0.1 to 1 µM.
`Cc1cc([C@@H](C)Nc2ccc(Cl)nc2C(=O)O)nc(N2C(=O)OC[C@@H]2Cc2ccc3cncn3c2)c1` [Example 41, 6-Chloro-3-(((R)-1-(6-((S)-4-(imidazo[1,5-α]pyridin-6-ylmethyl)-2-oxooxazolidin-3-yl)-4-methylpyridin-2-yl)ethyl)amino)picolinic acid]: the IC50 was 0.1 to 1 µM.
For the compound `CC(Nc1ccc(Cl)nc1C(=O)O)c1cc(F)cc(N2C(=O)OC[C@@H]2Cc2ccccc2)c1` (stereo partly drawn) [Example 4, 3-((1-(3-((S)-4-Benzyl-2-oxooxazolidin-3-yl)-5-fluorophenyl)ethyl)amino)-6-chloropicolinic acid], for the setting “Homo sapiens, T47D, 2 h”, the IC50 lay within 0.1 to 1 µM.
